Source: patent US12370170B2, “Composition comprising naphthoquinone-based compound as active ingredient, for preventing or ameliorating fatigue, cachexia, pain, cognitive decline and hematopoietic stem cell reduction which are side effects related to anticancer drug treatment” (NADIANBIO LTD., priority 2016, dated 2025)

Legend:
Format in all cases: in vivo, C57BL/6 mice
[1] = tested on: inflammatory cytokines TNF-α, IL-1β, IL-6 and IL-17; assay: Plasma inflammatory cytokines by ELISA in adriamycin animal model; conditions: adriamycin 4 mg/kg/day i.p. ×3; compound 20 mg/kg oral daily from 3 days before; 4 days after final adriamycin; vs adriamycin group
Method: (§1) In this invention, 11 weeks old C57BL/6 mice were used. All the mice used in the experiments of the invention were raised in an aseptic animal room at the temperature of 22˜26 L with the humidity of 55˜60%. The mice were allowed to take general solid feed (SAMTACO Co., Ltd., Korea) and water freely. The mice were adapted for 1 week before the experiment. All the experiments were performed after obtaining approval from the clinical trial management committee in accordance with the laboratory animal care and ethics regulations of Wonkwang University. The mouse animal model of the present invention was treated with different anticancer drugs. […]
Particularly, plasma was isolated from the adriamycin animal model prepared by the same manner as described in Example 4, and the inflammatory cytokines TNF-α (R&D Systems, MTA00B), IL-1β (R&D Systems, MLB00C), IL-6 (R&D Systems, M6000B) and IL-17 (R&D Systems, M1700) were analyzed by ELISA (enzyme-linked immunosorbent assay).
To investigate the regulatory effect of β-lapachone on adriamycin induced inflammatory cytokines, plasma was isolated from the adriamycin animal model prepared by the same manner as described in Example 4, and the inflammatory cytokines TNF-α, IL-1β, IL-6 and IL-17 were analyzed by ELISA.

[2] = Muscle loss (body weight, gastrocnemius muscle weight) in 3×ACP animal model; conditions: 3×ACP i.p. once; dunnione 20 mg/kg oral daily from 3 days before; 2 and 4 days after ACP
Method: as §1, with “drugs. Particularly, one kind of anticancer drug was administered intraperitoneally one time or more, or several kinds of anticancer drugs were administered once or more times or at different concentrations, leading to the establishment of the animal model of the invention.” for “drugs.”
To investigate the regulatory effect of dunnione on muscle loss in the 3×ACP animal models prepared by the same manner as described in Example 6, the changes of body weight and gastrocnemius muscle weight were measured after the drug treatment.

[3] = Muscle loss (body weight, gastrocnemius muscle weight) in cyclophosphamide induced animal model; conditions: cyclophosphamide 150 mg/kg+200 mg/kg i.p.; dunnione 20 mg/kg oral daily from 3 days before; 48 hours after
Method: as §1, with “drugs. Particularly, one kind of anticancer drug was administered intraperitoneally one time or more, or several kinds of anticancer drugs were administered once or more times or at different concentrations, leading to the establishment of the animal model of the invention.” for “drugs.”
In the cyclophosphamide (150 mg/kg+200 mg/kg) induced animal model prepared by the same manner as described in Example 9, the changes of body weight and gastrocnemius muscle weight were measured after the drug treatment in order to investigate the regulatory effect of dunnione on muscle loss.

[4] = tested on: bone marrow cells and hematopoietic stem/progenitor cells; assay: Bone marrow hematopoietic stem cell reduction by flow cytometry, 3×ACP animal model; conditions: 2 days after ACP
Method: In this invention, 11 weeks old C57BL/6 mice were used. All the mice used in the experiments of the invention were raised in an aseptic animal room at the temperature of 22˜26 L with the humidity of 55˜60%. The mice were allowed to take general solid feed (SAMTACO Co., Ltd., Korea) and water freely. The mice were adapted for 1 week before the experiment. All the experiments were performed after obtaining approval from the clinical trial management committee in accordance with the laboratory animal care and ethics regulations of Wonkwang University. The mouse animal model of the present invention was treated with different anticancer drugs. Particularly, one kind of anticancer drug was administered intraperitoneally one time or more, or several kinds of anticancer drugs were administered once or more times or at different concentrations, leading to the establishment of the animal model of the invention. In the adriamycin-induced animal model, the mice were divided into 6 groups as follows: the control group administered with PBS (Control, 5 mice), the group administered intraperitoneally with adriamycin (4 mg/kg/day) 3 times (ADR, 5 mice), the group administered orally with dunnione or β-lapachone from 3 days before the adriamycin treatment daily (20 mg/kg, 5 mice), and the group administered with dunnione or β-lapachone (20 mg/kg, 5 mice). 4 days after the final adriamycin treatment, analysis of the mice was performed.
In the 3×ACP induced animal model for the analysis of bone marrow hematopoietic stem cell protective effect, the mice were divided into 4 groups as follows: the control group administered with PBS (Control, 4 mice), the group administered intraperitoneally with 3×ACP once (3×ACP, 4 mice), the group administered orally with dunnione from 3 days before the 3×ACP treatment daily (20 mg/kg, 4 mice), and the group administered with dunnione (20 mg/kg, 4 mice). 2 days after the ACP treatment, analysis of the mice was performed. […]
As a result, as shown in FIG. 9 presenting the results of flow cytometry for the quantitative analysis of bone marrow hematopoietic cells, the region where lineage negative cells were distributed was gated. […] Next, hematopoietic stem cells and multipotent progenitor cells were separated and analyzed, leading to the analysis of multipotent progenitor cell-4 (MPP4) and hematopoietic stem cell/progenitor cell (HSPC). With the hematopoietic stem cell/progenitor cell group, long-term hematopoietic stem cells (HSC^LT), short-term hematopoietic stem cells (HSC^ST), and multipotent progenitor cell-2 and -3 (MPP2 and MPP3) were analyzed. In FIG. 9, the results of flow cytometry analyzed for each group are presented. […]

With `CC1OC2=C(C(=O)C(=O)c3ccccc32)C1(C)C` (stereo not drawn) [dunnione, 2,3-dihydro-2,3,3-trimethyl naphtho [1,2-b]furan-4,5-dione] the “level of inflammatory cytokines (TNF-α, IL-1β, IL-6, IL-17) in plasma” value [1] was “significantly reduced”, the “reduction of gastrocnemius muscle weight and gastrocnemius muscle weight change” value [2] was “significantly restored” and the “weight loss (body weight)” value [2] was “significantly restored”. For the same compound, the “reduction of gastrocnemius muscle weight and gastrocnemius muscle weight change” value [3] was “significantly restored”, the “weight loss (body weight)” value [3] was “significantly restored” and the “total bone marrow cell number, increase relative to the group treated with the anticancer drugs” value ([4]; 3×ACP + dunnione 20 mg/kg oral daily from 3 days before) was “at least three times”. The “number of hematopoietic stem cell/progenitor cell, increase by dunnione” value ([4]; 3×ACP + dunnione 20 mg/kg oral) was “as much as three times”, the “number of long-term hematopoietic stem cells (HSC^LT), increase relative to the group treated with the anticancer drugs” value ([4]; 3×ACP + dunnione 20 mg/kg oral) was “at least 2 times” and the “number of short-term hematopoietic stem cells (HSC^ST), increase relative to the group treated with the anticancer drugs” value ([4]; 3×ACP + dunnione 20 mg/kg oral) was ≥ 8 times.
